# Patent US20080076166A1, “Method For Producing Polyunsaturated Fatty Acids In Transgenic Organisms” (priority 2004, published 2008)
# Read-outs that look alike come from different tables or passages of the source.
# Columns and labels:
# [1] = system: elongase OtElo1 (Δ5-elongase); format: cell-based, Ostreococcus tauri; details: for Conversion rate (in %): yeast transformed with pOTE1, grown in presence of the fatty acid, FAMEs by GLC, mean (n=3) ± standard deviation
# Description: (§1) The Saccharomyces cerevisiae strain 334 was transformed with the vector pOTE1 or pOTE2, respectively, by electroporation (1500 V). A yeast which was transformed with the blank vector pYES2 was used as control. The transformed yeasts were selected on complete minimal dropout uracil medium (CMdum) agar plates supplemented with 2% glucose. After the selection, in each case three transformants were selected for the further functional expression.
# (§2) To express the Ot elongases, precultures consisting of in each case 5 ml of CMdum dropout uracil liquid medium supplemented with 2% (w/v) raffinose were initially inoculated with the selected transformants and incubated for 2 days at 30° C. and 200 rpm. Then, 5 ml of CMdum (dropout uracil) liquid medium supplemented with 2% raffinose and 300 μM various fatty acids were inoculated with the precultures to an OD600 of 0.05. Expression was induced by the addition of 2% (w/v) galactose. The cultures were incubated for a further 96 hours at 20° C.
# The yeast cells from the main cultures were harvested by centrifugation (100×g, 5 min, 20° C.) and washed with 100 mM NaHCO3, pH 8.0 to remove residual medium and fatty acids. Starting with the yeast cell sediments, fatty acid methyl esters (FAMEs) were prepared by acid methanolysis. To this end, the cell sediments were incubated for one hour at 80° C. together with 2 ml of 1 N methanolic sulfuric acid and 2% (v/v) of dimethoxypropane. The FAMEs were extracted twice with petroleum ether (PE). To remove nonderivatized fatty acids, the organic phases were washed in each case once with 2 ml of 100 mM NaHCO3, pH 8.0 and 2 ml of distilled water. […]
# The substrate specificity of OtElo1 was determined after expression and after feeding various fatty acids (Tab. 2). The substrates fed can be detected in large amounts in all of the transgenic yeasts. […]
# The yeasts which had been transformed with the vector pOTE1 were grown in minimal medium in the presence of the fatty acids stated. […] Thereafter, the FAMEs were analyzed by GLC. […]
# [2] = system: desaturase OtDes6.1 (Δ6-desaturase); format: cell-based, Ostreococcus tauri; details: for Activity in %: yeast transformed with pYES2-OtDes6.1, conversion rate [substrate/(substrate+product)*100], mean (n=3)
# Description: as §1, with “pYES2.1-OtD6.1” for “pOTE1 or pOTE2, respectively,”
# as §2, with “OtD6.1 desaturase,” for “Ot elongases,”
# The yeast cells from the main cultures were harvested by centrifugation (100×g, 5 min, 20° C.) and washed with 100 mM NaHCO3, pH 8.0 to remove residual medium and fatty acids. The yeast cell sediments were extracted for 4 hours using chloroform/methanol (1:1). The resulting organic phase was extracted with 0.45% NaCl, dried with Na2SO4 and evaporated in vacuo. Applying thin-layer chromatography (horizontal tank, chloroform:methanol:acetic acid 65:35:8), the lipid extract was separated further into the lipid classes phosphatidylcholine (PC), phosphatidylinosotol (PI), phosphatidylserine (PS), phsophatidylethanolamine (PE) and neutral lipids (NL). The various separated spots on the thin-layer plate were scraped off. For the gas-chromatographic analysis, fatty acid methyl esters (FAMEs) were prepared by acid methanolysis. To this end, the cell sediments were incubated for one hour at 80° C. together with 2 ml of 1 N methanolic sulfuric acid and 2% (v/v) dimethoxypropane. The FAMEs were extracted twice with petroleum ether (PE). To remove nonderivatized fatty acids, the organic phases were washed in each case once with 2 ml of 100 mM NaHCO3, pH 8.0 and 2 ml of distilled water. Thereafter, the PE phases were dried with Na2SO4, evaporated under argon and taken up in 100 μl of PE. The samples were separated on a DB-23 capillary column (30 m, 0.25 mm, 0.25 μm, Agilent) in a Hewlett-Packard 6850 gas chromatograph equipped with flame ionization detector. The conditions for the GLC analysis were as follows: the oven temperature was programmed from 50° C. to 250° C. with a 5° C./min increment and finally 10 min at 250° C. (holding).
# The signals were identified by comparing the retention times with corresponding fatty acid standards (Sigma). The methodology is described for example in Napier and Michaelson, 2001, Lipids. 36(8):761-766; Sayanova et al., 2001, Journal of Experimental Botany. 52(360):1581-1585, Sperling et al., 2001, Arch. Biochem. Biophys. 388(2):293-298 and Michaelson et al., 1998, FEBS Letters. 439(3):215-218.
# The substrate specificity of OtDes6.1 was determined after expression and after feeding various fatty acids. The substrates fed can be detected in large amounts in all of the transgenic yeasts. […]
# The yeasts which had been transformed with the vector pYES2-OtDes6.1 were grown in minimal medium in the presence of the stated fatty acids. […] Thereafter, the FAMEs were analyzed via GLC. […] The activity corresponds to the conversion rate calculated using the formula [[…]].
# [3] = system: elongase OtElo2 (Δ6-elongase); format: cell-based, Ostreococcus tauri
# Description: as §1
# as §2, with “20° C. […]” for “20° C.”
# The substrate specificity of OtElo2 (SEQ ID NO: 1) was determined after expression and after feeding various fatty acids (Tab. 3). The substrates fed can be detected in large amounts in all of the transgenic yeasts. […]
# The yeasts which had been transformed with the vector pOTE2 were grown in minimal medium in the presence of the fatty acids stated. […] Thereafter, the FAMEs were analyzed by GLC. […]
# [4] = system: OtD6 + PSE1 + PtD5; experiment: Reconstitution of the PUFA biosynthesis in yeast, total fatty acids; format: cell-based; details: to DHGLA and DHSTA, FIG. 5
# Description: The yeast cells from the main cultures were harvested by centrifugation (100×g, 5 min, 20° C.) and washed with 100 mM NaHCO3, pH 8.0 to remove residual medium and fatty acids. The yeast cell sediments were extracted for 4 hours using chloroform/methanol (1:1). The resulting organic phase was extracted with 0.45% NaCl, dried with Na2SO4 and evaporated in vacuo. […] For the gas-chromatographic analysis, fatty acid methyl esters (FAMEs) were prepared by acid methanolysis. To this end, the cell sediments were incubated for one hour at 80° C. together with 2 ml of 1 N methanolic sulfuric acid and 2% (v/v) dimethoxypropane. The FAMEs were extracted twice with petroleum ether (PE). To remove nonderivatized fatty acids, the organic phases were washed in each case once with 2 ml of 100 mM NaHCO3, pH 8.0 and 2 ml of distilled water. Thereafter, the PE phases were dried with Na2SO4, evaporated under argon and taken up in 100 μl of PE. The samples were separated on a DB-23 capillary column (30 m, 0.25 mm, 0.25 μm, Agilent) in a Hewlett-Packard 6850 gas chromatograph equipped with flame ionization detector. The conditions for the GLC analysis were as follows: the oven temperature was programmed from 50° C. to 250° C. with a 5° C./min increment and finally 10 min at 250° C. […]
# The parameters measured were the total fatty acids.
compound,measurement,setting,value
"CCCCC/C=C\C/C=C\C/C=C\C/C=C\CCCC(=O)O [20:4^Δ5,8,11,14, arachidonic acid]","Elongation by OtElo1, in words","[1]; Table 2, FIG. 2 and 3",capable of elongating
same,Conversion rate (in %),[1],10.8 ± 0.6%
"CCCCCC/C=C\CCCCCCCC(=O)O [16:1^Δ9, palmitoleic acid]","Activity of OtDes6.1, in words",[2],markedly less pronounced
same,Activity in %,[2],5.6%
"CCCCC/C=C\C/C=C\C/C=C\CCCCC(=O)O [18:3^Δ6,9,12, γ-linolenic acid]",Conversion rate (in %),[3],15.3%
same,Elongation of the OtDes6.1 reaction products in the presence of the Δ6-elongase PSE1,[4],almost quantitatively
"CC/C=C\C/C=C\C/C=C\C/C=C\C/C=C\CCCC(=O)O [20:5^Δ5,8,11,14,17, eicosapentaenoic acid]",Conversion rate (in %),[1],46.8 ± 3.6%
"CC/C=C\C/C=C\C/C=C\CCCCCCCC(=O)O [18:3^Δ9,12,15, linolenic acid]",Activity in %,[2],64.6%
"CC/C=C\C/C=C\C/C=C\C/C=C\CCCCC(=O)O [18:4^Δ6,9,12,15, stearidonic acid]",Conversion rate (in %),"[3]; yeast transformed with pOTE2, grown in presence of the fatty acid, FAMEs by GLC, mean (n=3) ± standard deviation",21.1%
same,Elongation of the OtDes6.1 reaction products in the presence of the Δ6-elongase PSE1,[4],almost quantitatively
"CCCCC/C=C\C/C=C\CCCCCCCC(=O)O [18:2^Δ9,12, linoleic acid]","Activity of OtDes6.1, in words",[2],highest activities
same,Activity in %,[2],68.7%
